# Laboratory results from ChEMBL document CHEMBL1156829 (Proc Natl Acad Sci U S A, 2008).
# How the values were obtained:
# Plasmodium falciparum [1] = experiment: NOVARTIS: Inhibition of Plasmodium falciparum 3D7 (drug-susceptible) proliferation in erythrocyte-based infection assay; format: functional, organism-based; settings: Plasmodium falciparum, 3D7
# [2] = NOVARTIS: Cytotoxicity against human hepatocellular carcinoma cell line (Huh7); format: toxicity, cell-based, Huh-7; settings: Huh7 cells (hepatocellular carcinoma cell line)
# Plasmodium falciparum [3] = experiment: NOVARTIS: Inhibition of Plasmodium falciparum W2 (drug-resistant) proliferation in erythrocyte-based infection assay; format: functional, organism-based; settings: Plasmodium falciparum, W2; read-out: EC50
Compound,EC50 (Plasmodium falciparum [1]) [µM],CC50 [2] [µM],EC50 (Plasmodium falciparum [3]) [µM]
O=[N+]([O-])c1ccc(C=NNc2nc(Nc3ccccc3)nc(Nc3ccccc3)n2)o1,0.625,20.7,0.454
COc1cc(OC)nc(C(Sc2ccc(NC(=O)c3cccs3)cc2)c2ccccc2)n1 (stereo not drawn),0.175,> 10,0.225
CCN1CCN(c2cc(C)c3cc(NC(=O)c4ccc(OC)c([N+](=O)[O-])c4)ccc3n2)CC1,0.273,15.4,0.344
COc1ccc(-c2cc(C(F)(F)F)n3ncc(C(=O)Nc4cc(C)ccc4O)c3n2)cc1OC,3.35,> 100,2.13
CC(C)(C)CC(C)(C)Nc1c(-c2ccccc2OC(=O)c2ccccc2)nc2ccccn12,1.07,> 1.26,0.0268
CC(Cc1ccccc1Sc1ccccc1O)N(C)C (stereo not drawn),2.04,34,0.722
CN(CCCNc1ccnc2cc(Cl)ccc12)C(=O)C(C)(C)C,0.203,> 10,0.225
CC1CN(C(=O)CCCSc2nnc(Cc3ccccc3)n2-c2ccc(Cl)c(Cl)c2)CC(C)O1 (stereo not drawn),> 12.5,> 100,2.23
Cc1ccc(NC(=O)c2sc3nc4c(c(-c5cccs5)c3c2N)CCCC4)cc1,0.442,> 100,2.22
CC(C)NC(=O)c1cn(Cc2ccccc2)cc(C(=O)NCCc2nc3ccccc3[nH]2)c1=O,3.34,> 100,2.22
Fc1cccc(Nc2nc(NCC3CCCO3)c3ccccc3n2)c1 (stereo not drawn),0.142,9.58,0.203
Brc1cccc(CNC2CCN(CCc3ccccc3)CC2)c1,0.31,22.9,0.515
C=CCOc1cccc(C(Nc2cccc(C)n2)c2ccc3cccnc3c2O)c1 (stereo not drawn),5.75,> 69.4,1.56
CN1C=CC=C/C1=C\C=C1\C=Nc2ccccc21,0.276,> 10,0.223
c1ccc(-c2cc(N3CCC4(CC3)OCCO4)nc(-c3ccccn3)n2)nc1,0.42,> 10,0.223
CCCN1CCC(N2C[C@@H](NCCC3=C(C)CCCC3(C)C)C[C@H]2C(=O)NCC)CC1,2.34,35.1,0.765
Cc1c[nH]c(CCNCc2ccc(OCC(O)CN(C)Cc3ccccc3)cc2)n1 (stereo not drawn),1.48,54.8,1.19
CCCC(=O)Oc1ccccc1-c1nc2ccccn2c1NC(C)(C)CC(C)(C)C,0.793,1.96,0.044
CC1=C(CC(=O)c2ccc(Cl)cc2)C(=O)c2ccccc2C1=O,2.74,46.6,1.02

Compound,EC50 (Plasmodium falciparum [1]) [µM],CC50 [2] [µM],EC50 (Plasmodium falciparum [3]) [µM]
COc1ccc2nc(C)cc(Nc3cccc(Cl)c3)c2c1,0.371,50.2,1.1
O=C(Nc1ccc(-c2nc3ccccc3[nH]2)cc1)c1ccccc1Oc1ccccc1,1.58,> 100,2.14
CC12CCC(CN(CC(O)Cn3c4ccc(Br)cc4c4cc(Br)ccc43)C1)C2(C)C (stereo not drawn),2.96,> 100,2.2
O=C(Cn1ccc(=NCc2ccccc2)cc1)c1ccc(I)cc1,0.308,20.8,0.448
COC1=CC(=O)c2c(ccc3cc(O)ccc23)C1=O,0.767,> 10,0.215
Cn1c(SCC(=O)Nc2cccc(F)c2)nc2c(c1=O)SCC2,2.38,> 100,2.15
CN(CCCNc1ccnc2cc(Cl)ccc12)C(=O)c1ccc2c(c1)OCO2,0.249,> 10,0.214
CCOc1cc(/C=C(\C#N)c2nc3ccccc3[nH]2)ccc1OCc1ccccc1C#N,> 1.12,> 10,0.214
CCOc1ccccc1NC(=O)Nc1ccc2nc(N3CCN(C)CC3)cc(C)c2c1,1.17,21.4,0.456
C[n+]1cccc(CNC2=C(Cl)C(=O)c3ccccc3C2=O)c1,0.127,> 10,0.213
C(#Cc1ccccc1)CN(Cc1ccccn1)Cc1ccccn1,1.56,> 14.1,0.3
c1ccc2c(c1)c1c(c3ccccc32)CN2CCCC2C1 (stereo not drawn),0.12,> 10,0.221
Cc1ccc(Nc2nc(NCc3ccccc3)c3ccccc3n2)cc1,0.184,10.9,0.241
CCN(CC)C/C=C/C1(O)c2ccccc2-c2ccccc21,1.01,> 10,0.221
CN(CCCNc1ccnc2cc(Cl)ccc12)C(=O)c1ccc(F)cc1,0.127,> 10,0.212
CCOc1ccc(NC(=O)NC(Cc2c[nH]c3ccccc23)C(=O)N2CCN(C(=O)NC(C)C)C(C)C2)cc1 (stereo not drawn),0.259,> 10,0.223
CC1=C(CC(=O)c2ccccc2)C(=O)c2ccccc2C1=O,2.66,13.8,0.3
Cc1ccc(/C=C/c2ccc3ccccc3[n+]2C)cc1,0.131,> 10,0.217
Cc1cc(C)c2cc(CN(CCN(C)C)C(=S)NCCCN(C)C)c(=O)[nH]c2c1,2.01,> 100,2.15

Compound,EC50 (Plasmodium falciparum [1]) [µM],CC50 [2] [µM],EC50 (Plasmodium falciparum [3]) [µM]
CN1CCN(c2nc(NCCNc3ccc([N+](=O)[O-])cc3)c3ccccc3n2)CC1,0.537,19,0.424
O=C(Nc1cccnc1)c1cc(-c2cccnc2)nc2ccc(Br)cc12,> 12.5,> 100,2.14
CCN(CC)c1nc(-c2cccnc2)nc2ccccc12,5.64,72.2,1.6
CSCCN1CCc2ccc3[nH]cc(-c4cccc(Cl)c4)c3c2C1,0.108,> 10,0.224
COc1cc[n+](OC(=O)N2CCCCC2)c(C)c1,0.188,36.6,0.81
O=c1cc(C(F)(F)F)c2cc(Cl)c(O)cc2o1,> 12.5,> 100,2.12
O=C(c1cccc(F)c1)N1CCN(Cc2ccncc2)CC1,> 9.94,> 100,2.17
Cc1ccn2c(NC(C)(C)CC(C)(C)C)c(-c3ccccc3OC(=O)C34CC5CC(CC(C5)C3)C4)nc2c1,0.788,> 10,0.214
c1ccc2c(c1)ccc1cc3cccc[n+]3cc12,1.38,37,0.795
Cc1ccc(NC(=O)c2ccc(NCCCN3CCCCCC3)c([N+](=O)[O-])c2)cc1F,0.0941,16.9,0.371
Cc1ccccc1N1C(=O)C2C3c4ccccc4C(C(=O)O)(c4ccccc43)C2C1=O (stereo not drawn),> 12.5,> 100,2.19
Cc1ccc(Nc2nc(NCCO)c3ccccc3n2)cc1C,0.175,4.9,0.108
COc1cccc(CN2CCc3nc(N4CCCCC4)sc3C2)c1,0.52,> 10,0.216
COc1ccc2ccccc2c1C1CC(=O)N2CN(Cc3ccco3)CSC2=C1C#N (stereo not drawn),3.32,> 100,2.18
CCOC(=O)c1nnn(-c2nonc2-n2cccc2)c1CN1CCCCC1,2.43,> 100,2.21
S=C(NCc1ccco1)NC1CC2CCC(C1)N2Cc1ccccc1 (stereo not drawn),0.865,> 100,2.24
Cc1ccccc1Cn1c(N2CCC(C(=O)NCc3ccccn3)CC2)nc2ccccc21,1.94,> 100,2.16
CC(C)=CCCC1=CCC(CNCCCN(C)C)C(C)C1 (stereo not drawn),1.75,18.9,0.415
